In the assay the target is PI3Kβ (Homo sapiens (Human), UniProt P42338). Nature of the assay: TR-FRET enzymatic activity assay, PI3Kβ. It is filed as biochemical. The settings on record: 2× Km ATP, 2 μM PIP2, 30 minutes at 25° C., read-out: IC50-PIP-Beta. Here is the method:
The compounds of formula (I) were characterized for their enzymatic activity against the PI3K isoforms. The activities were measured using a time-resolved fluorescence resonance energy transfer (TR-FRET) assay. TR-FRET monitored the formation of 3,4,5-inositol triphosphate molecule that competed with fluorescently labeled PIPS for binding to the GRP-1 pleckstrin homology domain protein.
Class I PI3K isoforms were expressed and purified as heterodimeric recombinant proteins. All assay reagents and buffers for the TR-FRET assay were purchased from Millipore. […] The compounds were added to the assay solution and incubated for 30 minutes at 25° C.
PI3Kβ, sequence (P42338 whole entry, the tested form may be a part, canonical isoform): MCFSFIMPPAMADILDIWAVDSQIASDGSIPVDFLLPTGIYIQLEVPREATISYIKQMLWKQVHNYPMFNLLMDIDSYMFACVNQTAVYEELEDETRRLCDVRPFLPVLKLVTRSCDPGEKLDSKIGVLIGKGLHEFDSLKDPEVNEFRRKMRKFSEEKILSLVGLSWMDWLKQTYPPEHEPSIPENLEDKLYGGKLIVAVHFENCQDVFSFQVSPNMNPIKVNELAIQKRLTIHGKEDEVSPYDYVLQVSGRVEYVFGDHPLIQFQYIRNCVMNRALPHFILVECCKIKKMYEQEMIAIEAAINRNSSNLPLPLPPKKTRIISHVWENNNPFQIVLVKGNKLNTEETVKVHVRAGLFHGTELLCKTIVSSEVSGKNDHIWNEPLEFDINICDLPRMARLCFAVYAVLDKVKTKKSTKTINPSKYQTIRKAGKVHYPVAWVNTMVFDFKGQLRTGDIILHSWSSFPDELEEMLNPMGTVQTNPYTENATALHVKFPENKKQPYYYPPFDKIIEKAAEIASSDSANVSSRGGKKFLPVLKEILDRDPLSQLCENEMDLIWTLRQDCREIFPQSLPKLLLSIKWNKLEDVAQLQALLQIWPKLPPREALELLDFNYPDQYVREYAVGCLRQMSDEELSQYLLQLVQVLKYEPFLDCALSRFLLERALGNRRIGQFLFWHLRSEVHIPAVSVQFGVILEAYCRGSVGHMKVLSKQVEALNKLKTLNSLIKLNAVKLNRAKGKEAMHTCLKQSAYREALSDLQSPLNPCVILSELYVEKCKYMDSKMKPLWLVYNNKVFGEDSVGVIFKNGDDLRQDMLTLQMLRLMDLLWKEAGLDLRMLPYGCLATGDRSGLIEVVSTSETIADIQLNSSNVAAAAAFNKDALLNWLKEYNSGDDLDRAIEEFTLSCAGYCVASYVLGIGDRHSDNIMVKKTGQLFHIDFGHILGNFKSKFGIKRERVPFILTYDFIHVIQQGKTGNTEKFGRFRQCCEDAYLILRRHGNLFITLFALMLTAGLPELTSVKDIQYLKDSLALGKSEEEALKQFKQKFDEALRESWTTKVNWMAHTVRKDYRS
PI3Kβ, sequence (P27986 whole entry partner, the tested form may be a part, canonical isoform): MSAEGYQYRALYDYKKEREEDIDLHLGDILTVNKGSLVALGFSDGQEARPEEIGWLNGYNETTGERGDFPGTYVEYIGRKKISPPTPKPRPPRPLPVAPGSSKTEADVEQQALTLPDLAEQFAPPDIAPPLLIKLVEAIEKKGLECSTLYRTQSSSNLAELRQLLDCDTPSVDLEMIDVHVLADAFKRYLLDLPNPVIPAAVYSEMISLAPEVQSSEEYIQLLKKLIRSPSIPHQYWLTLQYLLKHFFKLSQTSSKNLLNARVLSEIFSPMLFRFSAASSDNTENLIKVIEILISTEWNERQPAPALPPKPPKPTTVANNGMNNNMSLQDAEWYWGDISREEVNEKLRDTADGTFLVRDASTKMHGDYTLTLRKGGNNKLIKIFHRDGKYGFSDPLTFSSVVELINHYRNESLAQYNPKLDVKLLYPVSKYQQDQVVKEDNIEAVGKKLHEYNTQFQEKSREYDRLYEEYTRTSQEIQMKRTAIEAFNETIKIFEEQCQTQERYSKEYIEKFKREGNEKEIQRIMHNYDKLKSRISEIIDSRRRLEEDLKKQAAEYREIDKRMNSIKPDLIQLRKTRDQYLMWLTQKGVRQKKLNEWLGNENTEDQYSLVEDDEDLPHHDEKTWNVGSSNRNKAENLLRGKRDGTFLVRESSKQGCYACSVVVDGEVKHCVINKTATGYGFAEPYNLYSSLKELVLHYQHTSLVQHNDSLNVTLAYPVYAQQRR
Regarding `N#Cc1cc(-c2cc(-c3nnc[nH]3)c3ncn(-c4cc(N5CCNCC5)nc5ccccc45)c3c2)ccn1` [Example 167, 4-(1-(2-(piperazin-1-yl)quinolin-4-yl)-4-(4H-1,2,4-triazol-3-yl)-1H-benzo[d]imidazol-6-yl)picolinonitrile], the IC50 came out at 10 nM.

Turning to `Cc1nc2c(-c3nnc[nH]3)cc(-c3ccnc(N)c3)cc2n1-c1ccnc2c(Cl)cccc12` [Example 58, 4-(1-(8-chloroquinolin-4-yl)-2-methyl-4-(4H-1,2,4-triazol-3-yl)-1H-benzo[d]imidazol-6-yl)pyridin-2-amine], the IC50 came to 10 nM.

As for `Cc1nc2c(-c3nnc[nH]3)cc(-c3ccnc(C#N)c3)cc2n1-c1ccnc2cccc(Cl)c12` [Example 146, 4-(1-(5-chloroquinolin-4-yl)-2-methyl-4-(4H-1,2,4-triazol-3-yl)-1H-benzo[d]imidazol-6-yl)picolinonitrile], the IC50 amounted to 200 nM.

In the case of `Cc1nc2c(C(=O)O)cc(-c3ccncc3)cc2n1-c1ccnc2c(Cl)cccc12` [Example 1], the IC50 was 34 nM.

For `Cc1nnc(-c2cc(-c3ccnc(N)c3F)cc3c2nc(C)n3-c2ccnc3c(Cl)ccc(F)c23)[nH]1` [Example 98, 4-[3-(8-chloro-5-fluoroquinolin-4-yl)-2-methyl-7-(5-methyl-4H-1,2,4-triazol-3-yl)benzimidazol-5-yl]-3-fluoropyridin-2-amine], the IC50 turned out to be 6 nM.

`Cc1nc2c(-c3nnc[nH]3)cc(-c3ccncc3)cc2n1-c1ccnc2c(F)ccc(F)c12` (atropisomer, axis not shown) [Example 139, 5,8-difluoro-4-(2-methyl-6-(pyridin-4-yl)-4-(4H-1,2,4-triazol-3-yl)-1H-benzo[d]imidazol-1-yl)quinoline]: the IC50 was found to be 6 nM.

As for `CCc1nc2c(-c3nnc[nH]3)cc(-c3ccnc(N)c3)cc2n1-c1ccnc2cc(F)ccc12` [Example 52, 4-[2-ethyl-3-(7-fluoroquinolin-4-yl)-7-(4H-1,2,4-triazol-3-yl)benzimidazol-5-yl]pyridin-2-amine], the IC50 was found to be 330 nM.

For the molecule `CCCc1nc2c(-c3nnc[nH]3)cc(-c3ccnc(N)c3F)cc2n1-c1ccnc2c(F)ccc(F)c12` [Example 78, 4-[3-(5,8-difluoroquinolin-4-yl)-2-propyl-7-(4H-1,2,4-triazol-3-yl)benzimidazol-5-yl]-3-fluoropyridin-2-amine], the IC50 was found to be 5 nM.

Regarding `Cc1cc(-n2c(C)nc3c(C(N)=O)cc(-c4ccncc4)cc32)c2ccccc2n1` [Example 10, 2-methyl-1-(2-methylquinolin-4-yl)-6-pyridin-4-ylbenzimidazole-4-carboxamide], the IC50 was determined as 1600 nM.

For `Cc1nnc(-c2cc(-c3ccnc(C#N)c3)cc3c2nc(C)n3-c2ccnc3c(Cl)ccc(F)c23)[nH]1` [Example 150, 4-(1-(8-chloro-5-fluoroquinolin-4-yl)-2-methyl-4-(5-methyl-4H-1,2,4-triazol-3-yl)-1H-benzo[d]imidazol-6-yl)picolinonitrile], the IC50 stood at 13 nM.

As to `Cc1nc2c(-c3nnc[nH]3)cc(-c3ccnc(F)c3)cc2n1-c1ccnc2c(F)ccc(F)c12` (single isomer, unassigned) [Example 133, 5,8-difluoro-4-(6-(2-fluoropyridin-4-yl)-2-methyl-4-(4H-1,2,4-triazol-3-yl)-1H-benzo[d]imidazol-1-yl)quinoline], the IC50 was determined as 2 nM.

As for `CCc1nc2c(-c3nnc[nH]3)cc(-c3ccnc(N)c3F)cc2n1-c1ccnc2cccc(F)c12` [Example 94, 4-[2-ethyl-3-(5-fluoroquinolin-4-yl)-7-(4H-1,2,4-triazol-3-yl)benzimidazol-5-yl]-3-fluoropyridin-2-amine], the IC50 is 8 nM.

In the case of `Cc1nc2c(C(N)=O)cc(-c3ccncc3F)cc2n1-c1ccnc2c(Cl)cccc12` [Example 14, 1-(8-chloroquinolin-4-yl)-6-(3-fluoropyridin-4-yl)-2-methylbenzimidazole-4-carboxamide], the IC50 is 62 nM.

For `Cc1cccc2nccc(-n3c(C)nc4c(C(N)=O)cc(-c5ccncc5)cc43)c12` [Example 9, 2-methyl-1-(5-methylquinolin-4-yl)-6-pyridin-4-ylbenzimidazole-4-carboxamide], the IC50 stood at 950 nM.

For `Cc1nc2c(-c3nnc[nH]3)cc(-c3ccnc(N)c3F)cc2n1-c1ccnc2c(F)ccc(F)c12` [Example 75, 4-[3-(5,8-difluoroquinolin-4-yl)-2-methyl-7-(4H-1,2,4-triazol-3-yl)benzimidazol-5-yl]-3-fluoropyridin-2-amine], the IC50 is 3 nM.

With `Fc1nccc(-c2ccc3ncn(-c4cc(N5CCNCC5)nc5ccccc45)c3c2)c1F` [Example 165, 4-(6-(2,3-difluoropyridin-4-yl)-1H-benzo[d]imidazol-1-yl)-2-(piperazin-1-yl)quinoline], the IC50 amounted to 480 nM.

Consider `Cc1nc2c(-c3nnc[nH]3)cc(-c3ccnc(C(F)F)c3)cc2n1-c1ccnc2c(F)ccc(F)c12` [Example 43, 4-(6-(2-(difluoromethyl)pyridin-4-yl)-2-methyl-4-(4H-1,2,4-triazol-3-yl)-1H-benzo[d]imidazol-1-yl)-5,8-difluoroquinoline], for which the IC50 was found to be 30 nM.

As for `Cc1nnc(-c2cc(-c3ccncc3)cc3c2nc(C)n3-c2ccnc3c(F)ccc(F)c23)[nH]1` [Example 33, 5,8-difluoro-4-[2-methyl-4-(5-methyl-4H-1,2,4-triazol-3-yl)-6-pyridin-4-ylbenzimidazol-1-yl]quinoline], the IC50 was 110 nM.

On to `Cc1nc2c(-c3nnc[nH]3)cc(-c3ccnc(N)c3F)cc2n1-c1ccnc2c(Cl)ccc(F)c12` [Example 83, 4-[3-(8-chloro-5-fluoroquinolin-4-yl)-2-methyl-7-(4H-1,2,4-triazol-3-yl)benzimidazol-5-yl]-3-fluoropyridin-2-amine], for which the IC50 was found to be 2 nM.

For the molecule `Cc1nc2c(-c3nnc[nH]3)cc(-c3ccncc3F)cc2n1-c1ccnc2c(Cl)cccc12` [Example 39, 8-chloro-4-[6-(3-fluoropyridin-4-yl)-2-methyl-4-(4H-1,2,4-triazol-3-yl)benzimidazol-1-yl]quinoline], the IC50 worked out at 5 nM.

As to `CCCc1nc2c(-c3nnc[nH]3)cc(-c3ccnc(N)c3)cc2n1-c1ccnc2c(F)ccc(F)c12` [Example 72, 4-[3-(5,8-difluoroquinolin-4-yl)-2-propyl-7-(4H-1,2,4-triazol-3-yl)benzimidazol-5-yl]pyridin-2-amine], the IC50 is 10 nM.

Regarding `Nc1cc(-c2cc(-c3nnc[nH]3)c3nc(C4CC4)n(-c4ccnc5c(Cl)cccc45)c3c2)ccn1` [Example 74, 4-[3-(8-chloroquinolin-4-yl)-2-cyclopropyl-7-(4H-1,2,4-triazol-3-yl)benzimidazol-5-yl]pyridin-2-amine], the IC50 worked out at 29 nM.

`Cc1nc2c(-c3nnc[nH]3)cc(-c3ccnc(F)c3)cc2n1-c1ccnc2c(F)ccc(F)c12` [Example 159, 5,8-difluoro-4-(6-(2-fluoropyridin-4-yl)-2-methyl-4-(4H-1,2,4-triazol-3-yl)-1H-benzo[d]imidazol-1-yl)quinoline]: the IC50 was found to be 5 nM.

Consider `Cc1nnc(-c2cc(-c3ccnc(N)c3)cc3c2nc(C2CC2)n3-c2ccnc3c(Cl)ccc(F)c23)[nH]1` [Example 64, 4-[3-(8-chloro-5-fluoroquinolin-4-yl)-2-cyclopropyl-7-(5-methyl-4H-1,2,4-triazol-3-yl)benzimidazol-5-yl]pyridin-2-amine], for which the IC50 worked out at 200 nM.

As to `Nc1cc(-c2cc(-c3nnc[nH]3)c3nc(C4CC4)n(-c4ccnc5c(F)cccc45)c3c2)ccn1` [Example 60, 4-[2-cyclopropyl-3-(8-fluoroquinolin-4-yl)-7-(4H-1,2,4-triazol-3-yl)benzimidazol-5-yl]pyridin-2-amine], the IC50 amounted to 420 nM.

In the case of `Cc1cnc2c(Cl)cccc2c1-n1c(C)nc2c(-c3nnc[nH]3)cc(-c3ccnc(N)c3F)cc21` [Example 89, 4-[3-(8-chloro-3-methylquinolin-4-yl)-2-methyl-7-(4H-1,2,4-triazol-3-yl)benzimidazol-5-yl]-3-fluoropyridin-2-amine], the IC50 is 3 nM.

With `Cc1nc2c(-c3nnc[nH]3)cc(-c3ccnc(N)c3)cc2n1-c1ccnc2c(F)ccc(F)c12` [Example 48, 4-[3-(5,8-difluoroquinolin-4-yl)-2-methyl-7-(4H-1,2,4-triazol-3-yl)benzimidazol-5-yl]pyridin-2-amine], the IC50 was found to be 10 nM.

In the case of `Cc1nc2c(-c3nnc[nH]3)cc(-c3ccnc(C#N)c3)cc2n1-c1ccnc2c(Cl)ccc(Cl)c12` (single isomer, unassigned) [Example 122, 4-(1-(5,8-dichloroquinolin-4-yl)-2-methyl-4-(4H-1,2,4-triazol-3-yl)-1H-benzo[d]imidazol-6-yl)picolinonitrile], the IC50 was 28 nM.

In the case of `Nc1nccc(-c2cc(-c3nnc[nH]3)c3ncn(-c4ccnc5c(F)ccc(F)c45)c3c2)c1F` [Example 102, 4-[3-(5,8-difluoroquinolin-4-yl)-7-(4H-1,2,4-triazol-3-yl)benzimidazol-5-yl]-3-fluoropyridin-2-amine], the IC50 amounted to 11 nM.

On to `Cc1nc2c(-c3nnc[nH]3)cc(-c3ccnc(N)c3F)cc2n1-c1ccnc2c(Cl)ccc(Cl)c12` (single isomer, unassigned) [Example 120, 4-(1-(5,8-dichloroquinolin-4-yl)-2-methyl-4-(4H-1,2,4-triazol-3-yl)-1H-benzo[d]imidazol-6-yl)-3-fluoropyridin-2-amine], for which the IC50 stood at 4 nM.

With `Cc1nc2c(-c3nnc[nH]3)cc(-c3ccnc(C#N)c3)cc2n1-c1ccnc2cc(F)cc(F)c12` (single isomer, unassigned) [Example 115, 4-(1-(5,7-difluoroquinolin-4-yl)-2-methyl-4-(4H-1,2,4-triazol-3-yl)-1H-benzo[d]imidazol-6-yl)picolinonitrile], the IC50 worked out at 3 nM.

A word on the IC50: it is the concentration needed to halve the response being measured.

The record behind these values is US10227350B2 (Gilead Sciences, Inc., priority 2016, dated 2019).
